pIC50: −log10 of the molar value. The source made the active and inactive calls. The rule behind the calls is not given here.
Columns and labels:
[1] = target: Dipeptidyl peptidase 8 (Homo sapiens, UniProt Q6V1X1); assay: Inhibition of human recombinant DPP-8 expressed in Sf9 cells using H-Gly-Pro-AMC as substrate preincubated for 30 mins before substrate addition measured after 20 mins by fluorescence assay
[2] = system: Rattus norvegicus; assay: Inhibition of plasma DPP-4 activity in orally dosed Wistar/ST rat pretreated 30 mins before glucose challenge measured for 2 hrs during oral glucose tolerance test; type: functional, organism-based
[3] = system: Rattus norvegicus; assay: Increase in insulin level in Wistar/ST rat at 0.1 to 1 mg/kg, po pretreated 30 mins before glucose challenge measured after 10 mins; type: functional, organism-based
[4] = system: Rattus norvegicus; assay: Antidiabetic activity in Wistar/ST rat plasma assessed as reduction in glucose AUC (0 to 60 mins) at 1 mg/kg, po pretreated 30 mins before glucose challenge measured for 2 hrs by oral glucose tolerance test; type: functional, organism-based; design: dose 1 mg/kg

Sequence of Dipeptidyl peptidase 8 (Q6V1X1 whole entry): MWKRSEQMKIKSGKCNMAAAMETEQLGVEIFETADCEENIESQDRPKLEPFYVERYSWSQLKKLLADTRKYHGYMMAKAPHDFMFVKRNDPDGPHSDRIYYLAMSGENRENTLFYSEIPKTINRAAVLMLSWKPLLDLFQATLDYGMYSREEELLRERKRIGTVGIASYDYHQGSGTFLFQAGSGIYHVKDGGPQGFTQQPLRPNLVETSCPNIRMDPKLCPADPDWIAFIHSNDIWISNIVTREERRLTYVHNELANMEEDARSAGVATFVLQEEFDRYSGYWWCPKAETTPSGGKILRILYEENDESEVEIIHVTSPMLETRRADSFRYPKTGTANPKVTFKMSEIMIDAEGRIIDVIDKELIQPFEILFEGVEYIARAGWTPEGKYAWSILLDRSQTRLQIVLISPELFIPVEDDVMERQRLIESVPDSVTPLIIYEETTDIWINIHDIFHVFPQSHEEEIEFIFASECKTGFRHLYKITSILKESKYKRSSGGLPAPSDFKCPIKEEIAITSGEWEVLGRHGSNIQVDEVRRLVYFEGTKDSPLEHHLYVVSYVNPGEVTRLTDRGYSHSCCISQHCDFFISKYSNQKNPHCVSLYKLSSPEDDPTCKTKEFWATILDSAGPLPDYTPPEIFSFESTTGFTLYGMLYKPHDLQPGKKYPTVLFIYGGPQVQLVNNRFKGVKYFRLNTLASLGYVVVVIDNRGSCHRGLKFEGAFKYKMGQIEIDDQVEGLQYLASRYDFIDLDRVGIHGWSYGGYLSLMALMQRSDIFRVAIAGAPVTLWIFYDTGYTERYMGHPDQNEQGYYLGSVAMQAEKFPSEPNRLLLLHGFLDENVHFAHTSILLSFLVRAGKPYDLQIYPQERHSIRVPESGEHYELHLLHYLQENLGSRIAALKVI

pIC50 [1]	SMILES	inhibition [2]	Activity [3]	Activity [4]
< 4.00	Cc1c(C(=O)NCC(C)(C)NCC(=O)N2CCC[C@H]2C#N)cnc2cc(C(C)(C)C)nn12			
	Cc1cc2ncc(C(=O)NCC(C)(C)NCC(=O)N3CCC[C@H]3C#N)cn2n1	Dose-dependent effect	Active	Active
